Numbers after ± are expanded uncertainties.
Assay: molar enthalpy of vaporization or sublimation
Settings: 298.15 K; Liquid; Static calorimetry

| molar enthalpy [kcal/mol] | SMILES |
| --- | --- |
| 15.3 ± 0.932 | NCCN1CCOCC1 [4-morpholineethanamine] |
| 14.8 ± 0.86 | NCCCN1CCOCC1 [N-(3-aminopropyl)morpholine] |

Reference: the NIST ThermoML archive (doi:10.1016/j.jct.2018.03.001)
